Assay results from patent publication US20150148311A1, “NON-SYSTEMIC TGR5 AGONISTS” (Ardelyx, Inc., priority 2011, published 2015).
Read-outs that look alike come from different tables or passages of the source.

Target: T1, human TGR5 (Homo sapiens, UniProt Q8TDU6)
T1 construct: expressed in transfected cells
T1 sequence (Q8TDU6 1-330): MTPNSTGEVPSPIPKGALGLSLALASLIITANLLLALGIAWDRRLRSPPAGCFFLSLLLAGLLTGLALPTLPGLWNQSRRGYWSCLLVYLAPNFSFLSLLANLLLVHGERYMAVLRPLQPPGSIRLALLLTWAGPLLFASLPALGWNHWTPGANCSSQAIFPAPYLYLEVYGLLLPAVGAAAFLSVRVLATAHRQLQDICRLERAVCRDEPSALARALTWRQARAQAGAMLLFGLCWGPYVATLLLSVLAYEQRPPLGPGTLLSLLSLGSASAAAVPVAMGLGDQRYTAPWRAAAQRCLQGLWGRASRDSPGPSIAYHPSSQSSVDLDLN
Assay: Cell-based TGR5 assay, HEK293 cells stably expressing human TGR5, cAMP by HTRF
Details: 0.05 nM to 10 μM
Experimental: Two primary cell based screens were performed. The first utilized HEK293 cells stably transfected to heterologously express human TGR5. The second screen used the human caecum carcinoma cell line NCI-H716 which endogenously expresses human TGR5. In both assays, cells are treated with candidate TGR5 activators and assessed for the increased intercellular levels of cAMP.
HEK293 cells were transfected with a vector that expresses a gene encoding human TGR5, and a stable cell line was isolated using drug selection following standard techniques. Cells were grown overnight at 37° C./5% CO2 prior to assay.
TGR5-mediated cAMP generation was measured using a homogeneous time resolved fluorescence (HTRF) detection method (Cisbio). Test compounds were dissolved in DMSO to a final concentration of 10 mM. Serial 3-fold dilutions of the stock solution were made in DMSO, and these solutions were diluted 100-fold into Hanks Balanced Salt Solution supplemented with 10 mM HEPES pH 7.4 and 0.5 mM isobutyl methylxanthine (IBMX). Prior to assay, culture medium was replaced with fresh medium, and test compounds diluted in HBSS/HEPES/IBMX were added to the cells and incubated at 37° C. for 30 minutes.
Following incubation with test compounds, cAMP was detected through the successive addition of cAMP labeled with the modified allophyocyanin dye d2 (cAMP-d2) and cryptate-labeled anti-cAMP in lysis buffer, and reading HTRF per the manufacturer's instructions. A standard curve was used to convert the raw HTRF data into [cAMP].

[1] = HEK293 cells stably expressing human TGR5, 30 min at 37 C, read-out: pEC50 Human TGR5 (converted)

Molecule `COC(=O)[C@@H](CCCCN)NC(=O)NCCCCCc1cc(Cl)c(CN2CSC[C@H]2C(=O)N2CCN(C3CC3)c3ccccc32)cc1Cl` [Example 275] has an EC50 [1] of 126 to 1000 nM.
With `CN(C[C@H](O)[C@@H](O)[C@H](O)[C@H](O)CO)C(=O)CCCCc1ccc(C(F)(F)F)c(CN2CSC[C@H]2C(=O)N2CCN(C3CC3)c3ccccc32)c1` [Example 269] the EC50 [1] was 1260 to 50100 nM.
`O=C(CCCCc1ccc(C(F)(F)F)c(CN2CSC[C@H]2C(=O)N2CCN(C3CC3)c3ccccc32)c1)NC[C@H](O)[C@@H](O)[C@H](O)[C@H](O)CO` [Example 271] gave an EC50 [1] of 1260 to 50100 nM.
In the case of `O=C(O)CNC(=O)[C@H](CS)NC(=O)CC[C@H](NC(=O)CCCCc1cc(Cl)c(CN2CSC[C@H]2C(=O)N2CCN(C3CC3)c3ccccc32)cc1Cl)C(=O)O` [Example 222], the EC50 [1] is reported as under 100 nM.
`C[C@@H](NC(=O)[C@@H](C)NC(=O)[C@@H](C)NC(=O)c1ccc(COc2cc(Cl)c(CN3CSC[C@H]3C(=O)N3CCN(C4CC4)c4ccccc43)cc2Cl)cc1)C(=O)O` [Example 207] showed an EC50 [1] of 126 to 1000 nM.
For `CN(C[C@H](O)[C@@H](O)[C@H](O)[C@H](O)CO)C(=O)CN(CCCCCc1cc(Cl)c(CN2CSC[C@H]2C(=O)N2CCN(C3CC3)c3ccccc32)cc1Cl)CC(=O)O` [Example 277], the EC50 [1] was 126 to 1000 nM.
In the case of `O=C(NC[C@H](O)[C@@H](O)[C@H](O)[C@H](O)CO)c1ccc(CCc2cc(Cl)c(CN3CSC[C@H]3C(=O)N3CCN(C4CC4)c4ccccc43)cc2Cl)cn1` [Example 202], the EC50 [1] is reported as 126 to 1000 nM.
Work on `O=C(O)CN1CCN(C(=O)NCCCCCc2cc(Cl)c(CN3CSC[C@H]3C(=O)N3CCN(C4CC4)c4ccccc43)cc2Cl)CC1` [Example 281] yielded an EC50 [1] of under 100 nM.
`O=C(NCCCCc1cc(Cl)c(OCC2(C(=O)N3CCN(C4CC4)c4ccccc43)CC2)cc1Cl)NC[C@H](O)[C@@H](O)[C@H](O)[C@H](O)CO` [Example 251] showed an EC50 [1] of 126 to 1000 nM.
For `CN(C)c1nc(NCCCCCc2cc(Cl)c(CN3CSC[C@H]3C(=O)N3CCN(C4CC4)c4ccccc43)cc2Cl)nc(NC(CO)(CO)CO)n1` [Example 200], the EC50 [1] was 126 to 1000 nM.
With `N=C(N)NCCCCCc1cc(Cl)c(CN2CSC[C@H]2C(=O)N2CCN(C3CC3)c3ccccc32)cc1Cl` [Example 181, (R)-(3-(4-(5-guanidinylpentyl)-2,5-dichlorobenzyl)thiazolidin-4-yl)(4-cyclopropyl-3,4-dihydroquinoxalin-1(2H)-yl)methanone] the EC50 [1] was under 100 nM.
For `O=C([C@@H]1CSCN1Cc1cc(Cl)c(CN2CSC[C@H]2C(=O)N2CCN(C3CC3)c3ccccc32)cc1Cl)N1CCN(C2CC2)c2ccccc21` [Example 284], the EC50 [1] was 1260 to 50100 nM.
Work on `O=C(NCCCN(CCCNC(=O)[C@H](O)[C@@H](O)[C@H](O)[C@H](O)CO)C(=O)c1ccc(COc2cc(Cl)c(CN3CSC[C@H]3C(=O)N3CCN(C4CC4)c4ccccc43)cc2Cl)cc1)[C@H](O)[C@@H](O)[C@H](O)[C@H](O)CO` [Example 197] yielded an EC50 [1] of 1260 to 50100 nM.
Molecule `O=C(N1CCN(C2CC2)c2ccccc21)C1(NCc2c(Cl)ccc(Cl)c2O)CC1` [Example 168, (4-cyclopropyl-3,4-dihydroquinoxalin-1(2H)-yl)(1-((3,6-dichloro-2-hydroxybenzyl)amino)cyclopropyl)methanone] has an EC50 [1] of 126 to 1000 nM.
With `O=C([C@@H]1CSCN1Cc1cc(I)ccc1C(F)(F)F)N1CCN(C2CC2)c2ccccc21` [Example 270] the EC50 [1] was 126 to 1000 nM.
`O=C([C@H]1C[C@H](F)CN1Cc1cc(Cl)ccc1C(F)(F)F)N1CCN(C2CC2)c2ccccc21` [Example 264] was tested, and the EC50 [1] was 126 to 1000 nM.
`COC(=O)[C@H](CCCCN)NC(=O)NCCCCCc1cc(Cl)c(CN2CSC[C@H]2C(=O)N2CCN(C3CC3)c3ccccc32)cc1Cl` [Example 274] showed an EC50 [1] of 126 to 1000 nM.
In the case of `O=C(NC[C@H](O)[C@@H](O)[C@H](O)[C@H](O)CO)c1cnn(Cc2cc(Cl)c(CN3CSC[C@H]3C(=O)N3CCN(C4CC4)c4ccccc43)cc2Cl)c1` [Example 234], the EC50 [1] is reported as under 100 nM.
`CN(C[C@H](O)[C@@H](O)[C@H](O)[C@H](O)CO)C(=O)c1cccc(OCc2cc(Cl)c(CN3CSC[C@H]3C(=O)N3CCN(C4CC4)c4ccccc43)cc2Cl)c1` [Example 230] showed an EC50 [1] of 126 to 1000 nM.
Work on `CN(C[C@H](O)[C@@H](O)[C@H](O)[C@H](O)CO)C(=O)CCCCc1cc(Cl)c(COC2(C(=O)N3CCN(C4CC4)c4ccccc43)CC2)cc1Cl` [Example 192] yielded an EC50 [1] of under 100 nM.
For `O=C(O)c1cnn(Cc2cc(Cl)c(CN3CSC[C@H]3C(=O)N3CCN(C4CC4)c4ccccc43)cc2Cl)c1` [Example 232], the EC50 [1] was 1260 to 50100 nM.
`CN(C[C@H](O)[C@@H](O)[C@H](O)[C@H](O)CO)C(=O)CCCCc1ccc(Cl)c(CNC2(C(=O)N3CCN(C4CC4)c4ccccc43)CC2)c1` [Example 262] gave an EC50 [1] of 1260 to 50100 nM.
With `Cn1nc(C(=O)O)cc1OCc1cc(Cl)c(CN2CSC[C@H]2C(=O)N2CCN(C3CC3)c3ccccc32)cc1Cl` [Example 233] the EC50 [1] was 126 to 1000 nM.
`COC(=O)c1cc(NCCCCCc2cc(Cl)c(CN3CSC[C@H]3C(=O)N3CCN(C4CC4)c4ccccc43)cc2Cl)nc(N(C)C[C@H](O)[C@@H](O)[C@H](O)[C@H](O)CO)n1` [Example 223] gave an EC50 [1] of 126 to 1000 nM.
`CN(C[C@H](O)[C@@H](O)[C@H](O)[C@H](O)CO)C(=O)c1ccc(COc2cc(Cl)c(CN3CSC[C@H]3C(=O)N3CCN(C4CC4)c4ccccc43)cc2Cl)nc1` [Example 205] gave an EC50 [1] of 126 to 1000 nM.
`O=C(CCCCc1ccc(Cl)c(CNC2(C(=O)N3CCN(C4CC4)c4ccccc43)CC2)c1)NC[C@H](O)[C@@H](O)[C@H](O)[C@H](O)CO` [Example 263] gave an EC50 [1] of 1260 to 50100 nM.
With `CN(C(=O)[C@@H]1CSCN1Cc1cc(Cl)ccc1Cl)c1ccccc1OC1CCC1` [Example 290] the EC50 [1] was 126 to 1000 nM.
With `NCCCC[C@@H]1NC(=O)N(CCCCCc2cc(Cl)c(CN3CSC[C@H]3C(=O)N3CCN(C4CC4)c4ccccc43)cc2Cl)C1=O` [Example 273] the EC50 [1] was 126 to 1000 nM.
Molecule `CN(C[C@H](O)[C@@H](O)[C@H](O)[C@H](O)CO)C(=O)c1cnn(Cc2cc(Cl)c(CN3CSC[C@H]3C(=O)N3CCN(C4CC4)c4ccccc43)cc2Cl)c1` [Example 235] has an EC50 [1] of 126 to 1000 nM.
In the case of `O=C(O)CN(C[C@H](O)[C@@H](O)[C@H](O)[C@H](O)CO)C(=O)CCCCc1cc(Cl)c(CN2CSC[C@H]2C(=O)N2CCN(C3CC3)c3ccccc32)cc1Cl` [Example 226], the EC50 (pEC50 Human TGR5, HEK293 cells stably expressing human TGR5, 30 min at 37 C) is reported as 126 to 1000 nM.
Molecule `CN(C[C@H](O)[C@@H](O)[C@H](O)[C@H](O)CO)C(=O)CCc1cc(Cl)c(CN2C[C@@H](F)C[C@H]2C(=O)N2CCN(C3CC3)c3ccccc32)cc1Cl` [Example 266] has an EC50 [1] of 1260 to 50100 nM.
`O=C(CCCCc1ccc(Cl)c(CNC2(C(=O)N3CCN(C4CC4)c4ccccc43)CC2)c1)NC[C@H](O)[C@@H](O)[C@H](O)[C@H](O)CO` [Example 261] showed an EC50 [1] of 126 to 1000 nM.
`O=C(N1CCN(C2CC2)c2ccccc21)C1(NCc2cc(I)ccc2C(F)(F)F)CC1` [Example 164, (4-cyclopropyl-3,4-dihydroquinoxalin-1(2H)-yl)(1-(5-iodo-2-(trifluoromethyl)benzylamino)cyclopropyl)methanone] showed an EC50 [1] of 126 to 1000 nM.
`O=C(CCCCc1ccc(C(F)(F)F)c(CNC2(C(=O)N3CCN(C4CC4)c4ccccc43)CC2)c1)NC[C@H](O)[C@@H](O)[C@H](O)[C@H](O)CO` [Example 272] showed an EC50 [1] of 1260 to 50100 nM.
For `O=C(NC[C@@H](O)[C@H](O)[C@@H](O)[C@@H](O)CO)C(CCCc1cc(Cl)c(CN2CSC[C@H]2C(=O)N2CCN(C3CC3)c3ccccc32)cc1Cl)C(=O)NC[C@@H](O)[C@H](O)[C@@H](O)[C@@H](O)CO` [Example 174, 2-(3-(2,5-dichloro-4-(((R)-4-(4-cyclopropyl-1,2,3,4-tetrahydroquinoxaline-1-carbonyl)thiazolidin-3-yl)methyl)phenyl)propyl)-N1,N3-bis((2R,3S,4S,5S)-2,3,4,5,6-pentahydroxyhexyl)malonamide], the EC50 [1] was 1260 to 50100 nM.
Work on `CN(C[C@H](O)[C@@H](O)[C@H](O)[C@H](O)CO)C(=O)c1ccc(COc2cc(Cl)c(CN3CSC[C@H]3C(=O)N3CCN(C4CC4)c4ccccc43)cc2Cl)o1` [Example 203] yielded an EC50 [1] of 126 to 1000 nM.
`O=C(NCCCc1cc(Cl)c(OCC2(C(=O)N3CCN(C4CC4)c4ccccc43)CC2)cc1Cl)NC[C@H](O)[C@@H](O)[C@H](O)[C@H](O)CO` [Example 250] gave an EC50 [1] of 126 to 1000 nM.
`CN(C[C@H](O)[C@@H](O)[C@H](O)[C@H](O)CO)C(=O)CCCCc1ccc(C(F)(F)F)c(CNC2(C(=O)N3CCN(C4CC4)c4ccccc43)CC2)c1` [Example 172, 5-(3-((1-(4-cyclopropyl-1,2,3,4-tetrahydroquinoxaline-1-carbonyl)cyclopropylamino)methyl)-4-(trifluoromethyl)phenyl)-N-methyl-N-((2S,3R,4R,5R)-2,3,4,5,6-pentahydroxyhexyl)pentanamide] showed an EC50 [1] of 1260 to 50100 nM.
Molecule `CN(C[C@H](O)[C@@H](O)[C@H](O)[C@H](O)CO)C(=O)c1cnc(SCc2cc(Cl)c(CN3CSC[C@H]3C(=O)N3CCN(C4CC4)c4ccccc43)cc2Cl)n1C` [Example 231] has an EC50 [1] of 126 to 1000 nM.
